Test results published in doi:10.1101/2022.03.07.483284v1 (biorxiv, 2022).

Columns and labels:
[1] = target: T1, WTapPOL (intact exonuclease domain) (Plasmodium falciparum, UniProt Q8ILY1); assay: […]'-5' exonuclease assay, 2-aminopurine release from blunt-ended dsDNA; format: biochemical; details: read-out: % inhibition at 100 μM
T1 sequence (Q8ILY1 1389-2016): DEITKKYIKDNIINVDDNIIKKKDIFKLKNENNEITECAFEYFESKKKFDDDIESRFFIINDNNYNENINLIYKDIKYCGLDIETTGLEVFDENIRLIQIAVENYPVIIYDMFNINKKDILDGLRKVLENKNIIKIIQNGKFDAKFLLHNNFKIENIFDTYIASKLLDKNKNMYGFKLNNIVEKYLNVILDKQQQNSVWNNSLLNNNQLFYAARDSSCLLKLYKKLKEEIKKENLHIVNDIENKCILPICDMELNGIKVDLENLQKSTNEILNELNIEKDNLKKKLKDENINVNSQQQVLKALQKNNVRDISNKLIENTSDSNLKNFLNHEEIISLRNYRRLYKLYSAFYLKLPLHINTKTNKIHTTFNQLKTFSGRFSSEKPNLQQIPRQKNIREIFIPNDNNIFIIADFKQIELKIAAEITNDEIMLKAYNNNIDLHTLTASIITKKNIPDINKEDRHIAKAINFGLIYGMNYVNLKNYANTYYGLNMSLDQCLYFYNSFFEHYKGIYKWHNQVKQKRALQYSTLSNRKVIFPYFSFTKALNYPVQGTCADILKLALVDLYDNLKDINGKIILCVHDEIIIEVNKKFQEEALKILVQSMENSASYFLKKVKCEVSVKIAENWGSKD

[2] = target: T1, WTapPOL (intact exonuclease domain); assay: as above; format: biochemical

Row | Structure (SMILES) | inhibition at 100 µM [1] [%] | IC50 [2] [µM]
1 | CC(C)(C)c1ccc(C(=O)Nc2c3c(nn2-c2cccc(Cl)c2)CSC3)cc1 [5a, MMV666123] | < 50 | –
2 | CC(C)(C)c1ccc(S(=O)(=O)Nc2c3c(nn2-c2cccc(Cl)c2)CSC3)cc1 [6a] | – | 40 ± 5.7
3 | CC(C)(C)c1ccc(S(=O)(=O)Nc2c3c(nn2-c2ccc(Cl)cc2)CSC3)cc1 [6b] | – | 21 ± 2.5
4 | CC(C)(C)c1ccc(S(=O)(=O)Nc2c3c(nn2-c2cccc(C(F)(F)F)c2)CSC3)cc1 [6e] | – | 41 ± 6.7
5 | CC(C)(C)c1ccc(S(=O)(=O)Nc2c3c(nn2-c2ccc(C(F)(F)F)cc2)CSC3)cc1 [6f] | – | 16 ± 0.9

Continued, values first:

Row | inhibition at 100 µM [1] [%] | IC50 [2] [µM] | Structure (SMILES)
6 | < 50 | – | CC(C)(C)c1ccc(NC(=O)Nc2c3c(nn2-c2cccc(Cl)c2)CSC3)cc1 [7a]
7 | < 50 | – | CC(C)(C)c1ccc(NC(=O)Nc2c3c(nn2-c2ccc(Cl)cc2)CSC3)cc1 [7b]
8 | < 50 | – | CC(C)(C)c1ccc(NC(=O)Nc2c3c(nn2-c2cccc(C(F)(F)F)c2)CSC3)cc1 [7e]
9 | < 50 | – | CC(C)(C)c1ccc(NC(=O)Nc2c3c(nn2-c2cccc(Cl)c2)COC3)cc1 [13a]
